One assay has as its system hTERT-RPE cells. Kind of assay: MTS cell viability assay, hTERT-RPE. It counts as cell-based, human. The conditions noted are these: non-transformed hTERT-RPE cells, at approximately 80 μM. The text has this:
(§1) DLD-1 (KRASWT/G13D) (clone V15, #HD PAR-086) colorectal adenocarcinoma cell line and DLD-1 knockout of mutant KRAS allele, DLD-1 KO (KRASWT/−) (clone DWT7, #HD105-002), were obtained from Horizon Discovery Ltd. (Cambridge, UK). hTERT-RPE (KRASWT/WT) immortalized retinal pigment epithelial human cell line was obtained from the […] (ATCC). DLD-1 KO cells stably expressing HA-KRAS G12V were previously generated in our laboratory (Cabot et al., 2021). All cells were grown in DMEM-HAM s F12 (1:1) supplemented with 10% foetal bovine serum (Biological Industries, Israel), penicillin, streptomycin, and nonessential amino acids. Cells were tested once per month for mycoplasma contamination.
10,000 cells in 50 µL of 10% FBS-containing medium, were cultured for 24 hours and then treated with the compounds (50 μL final volume) for 48 h hours in each well of a 96-well plate (100 μL final volume). MTS viability assay (CellTiter 96® Aqueous One Solution Cell Proliferation Assay, Promega G3580) was assessed following the company conditions. The absorbance of each well was measured with a multimode plate reader (Spark, Tecan) at 490 nm. The percentage of cell viability was calculated by dividing the absorbance of each well by the average absorbance of the control wells. […]
In general terms: Formazan colour is commonly taken as a measure of viable cells.

Assay [1] concerns ERK and AKT in DLD-1-KO cells. The assay can be described thus: Western blot of AKT and ERK activation in serum-starved DLD-1-KO cells. In kind it is cell-based, human. Conditions: DLD-1-KO serum-starved cells, 100 μM.
Source text: as §1, with “Cells were tested once per month for mycoplasma contamination.” left out
For analysis of RAS signalling, cells were lysed in a buffer containing 67 mM Tris-HCl pH 6.8 and 2% SDS and then the samples were heated at 97° C. for 15 minutes. Protein concentration of the lysates was assessed using the Lowry method. […]
Comparison of Ras signaling between DLD-1, DLD-1-KO and hTERT-RPE cells treated with P14B since important differences were observed between the viability of cells treated with P14B depending on their expression or lack of expression of oncogenic KRAS, we further studied whether these discrepancies were reflected also in KRAS downstream signaling. Serum-starved cells (0.1% FCS) were treated with P14B (100 μM) and activation of AKT and ERK was evaluated by WB. […]
(A western blot detects proteins with antibodies after separation by electrophoresis.)

For assay [2], the target named is T1, HA-KRAS-G12V interaction with BRAF, C-RAF/P-C-RAF, ARAF (Homo sapiens, UniProt P01116, G12V).
T1 construct: expressed in transfected cells; host or cells: DLD-1 KO (KRAS WT/-) clone DWT7 cells stably expressing HA-KRAS G12V
Kind of assay: Co-immunoprecipitation of HA-KRASG12V with RAF family members. It counts as cell-based. The conditions noted are these: 10 min treatment, 100 μM. The procedure: DLD-1 KO cells stably expressing HA-KRAS G12V were serum starved for the next 24 hours before treatment with the compounds for the times indicated. Next, an IP with anti-HA antibody crosslinked to agarose beads (clone HA-7, Sigma-Aldrich A20956) was performed as previously described (Cabot et al, Oncogene 2021).
We assessed the possibility that P14B favors RAS-effector binding and consequently increases downstream RAS signaling. To this end, co-immunoprecipitation experiments were carried out to analyze the interaction of KRAS with different RAF family members upon P14B treatment. The interaction was analyzed after 10 min of P14B treatment since P—C-RAF and P-MEK were observed after 15 min (FIG. 3C). DLD-1 cells stably expressing HA-KRAS-G12V were serum-starved and then treated for 10 min with either EGF or P14B.

The test system of the next assay is DLD-1-KO cells. The assay can be described thus: Cleaved caspase-3 Western blot, DLD-1-KO. In kind it is cell-based, human. Conditions: DLD-1-KO cells treated 34 h or 48 h. The procedure:
FIG. 6C is a blot showing extracts of DLD-1, DLD-1-KO and RPE cells at 34 h. and 48 h. DLD-1 cells treated with P14B for 36 h and 48 h were lysed and the expression of the apoptosis marker cleaved caspase-3 was analyzed by Western blot. Cells treated with the apoptosis inducer palmitic acid (PA) were used as a positive control.
Proteins were resolved by SDS-PAGE, transferred onto PVDF membranes (Immobilon-P, Millipore) and Western blot was performed as previously described (Cabot et al, Oncogene 2021). […]
Since both inhibition and sustained activation of RAS signaling are related to a decrease in cell survival, we analyzed the viability of the CRC cell lines DLD-1 (expressing oncogenic KRAS) and DLD-1-KO (oncogenic KRAS allele deleted), and the non-transformed cell line hTERT-RPE. […] The effect of P14B in DLD-1 cells cultured in 3D conditions was also determined. […]

Consider `COc1ccc(C(c2c(C)n[nH]c2O)c2c(C)n[nH]c2O)cc1Oc1ccc([N+](=O)[O-])cc1` [Example P14B], for which the cell viability result with hTERT-RPE cells is listed as “not affected”. Besides, in assay [1], the “AKT and ERK activation” value is “AKT and ERK activation by P14B was also observed”; the “levels of ERK phosphorylation compared with 10% FBS treatment” value is “significantly lower”. For the same compound, the KRAS-ARAF binding result in assay [2] is “No differences”. Moreover, in assay [2] (serum-starved cells), the “P-C-RAF co-immunoprecipitated with KRAS” value is “increased the levels of P—C-RAF co-immunoprecipitated with KRAS”. Besides, in assay [2] (with respect to non-treated cells), the KRAS-BRAF interaction entry is “increase in the KRAS-BRAF interaction”. The “cleaved caspase-3 expression” value with DLD-1-KO cells was “undetectable”.

These data come from patent US20260217656A1, “Compounds Affecting KRAS” (UNIVERSITAT DE BARCELONA, priority 2022, published 2026).
